Here are results for three compounds from patent US20250098679A1, “HERBICIDAL PYRIDONE DERIVATIVES” (SYNGENTA CROP PROTECTION AG, priority 2021, published 2025).

What all share (assay type): in vivo
Common to all, as to details: evaluated after 13 days

For assay [1], the system named is Echinochloa crus-galli (ECHCG). The experiment in a line: Pre-emergence Test, Echinochloa crus-galli (ECHCG).
Assay [2] relates to Amaranthus retoflexus (AMARE). In words: Pre-emergence Test, Amaranthus retoflexus (AMARE).
Assay [3] relates to Setaria faberi (SETFA). The experiment in a line: Pre-emergence Test, Setaria faberi (SETFA).
The subject of assay [4] is Ipomoea hederacea (IPOHE). In words: Post-emergence Test, Ipomoea hederacea (IPOHE). Further details: key to percentage damage caused to the plant, IPOHE (five-point scale): 5=81-100%, 4=61-80%, 3=41-60%, 2=21-40%, 1=0-20% damage. A digest of the protocol: (§1)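 Scores are percentage plant damage on a 1–5 scale (1=0-20%, 2=21-40%, 3=41-60%, 4=61-80%, 5=81-100%), read 13 days after treatment. Pots received a spray at 1000 g/ha unless otherwise stated, formulated in acetone/water (50:50) containing 0.5% Tween 20.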

Assay [5] relates to Zea mays (ZEAMX). In words: Pre-emergence Test, Zea mays (ZEAMX).
In assay [6] the test system is Amaranthus palmeri (AMAPA). In words: Post-emergence Test, Amaranthus palmeri (AMAPA). More on the design: key: 5=81-100%, 4=61-80%, 3=41-60%, 2=21-40%, 1=0-20% damage. The gist of the method:
as §1

The subject of assay [7] is Echinochloa crus-galli (ECHCG). The experiment in a line: Post-emergence Test, Echinochloa crus-galli (ECHCG). More on the design: key to percentage damage caused to the plant, ECHCG (five-point scale): 5=81-100%, 4=61-80%, 3=41-60%, 2=21-40%, 1=0-20% damage. A digest of the protocol:
as §1

For assay [8], the system named is Amaranthus palmeri (AMAPA). The experiment in a line: Pre-emergence Test, Amaranthus palmeri (AMAPA).
For assay [9], the system named is Ipomoea hederacea (IPOHE). In words: Pre-emergence Test, Ipomoea hederacea (IPOHE).
In assay [10] the test system is Zea mays (ZEAMX). The experiment in a line: Post-emergence Test, Zea mays (ZEAMX). More on the design: key to percentage damage caused to the plant, ZEAMX (five-point scale): 5=81-100%, 4=61-80%, 3=41-60%, 2=21-40%, 1=0-20% damage. The gist of the method:
as §1

Assay [11] concerns Amaranthus retoflexus (AMARE). The experiment in a line: Post-emergence Test, Amaranthus retoflexus (AMARE). More on the design: key to percentage damage caused to the plant, AMARE (five-point scale): 5=81-100%, 4=61-80%, 3=41-60%, 2=21-40%, 1=0-20% damage. A digest of the protocol:
as §1

The subject of assay [12] is Setaria faberi (SETFA). The experiment in a line: Post-emergence Test, Setaria faberi (SETFA). More on the design: key to percentage damage caused to the plant, SETFA (five-point scale): 5=81-100%, 4=61-80%, 3=41-60%, 2=21-40%, 1=0-20% damage. A digest of the protocol:
as §1

The structures appear in SMILES notation.

As to `CCn1c(Cn2nc(Cl)cc2C)cc(=O)c(C(=O)O)c1-c1ccc(Cl)c(Cl)c1` [Compound 15, 6-[(3-chloro-5-methyl-pyrazol-1-yl)methyl]-2-(3,4-dichlorophenyl)-1-ethyl-4-oxo-pyridine-3-carboxylic acid], in assay [1] (1000 g/ha), the “Pre-emergence Test ECHCG, percentage damage caused to the plant (five-point scale)” value is listed as 4 (4=61-80%). In addition, in assay [2] (1000 g/ha), the “Pre-emergence Test AMARE, percentage damage caused to the plant (five-point scale)” value is reported as 2 (2=21-40%). For the same compound, the “Pre-emergence Test SETFA, percentage damage caused to the plant (five-point scale)” value in [3] (1000 g/ha) is 4 (4=61-80%). The “percentage damage caused to the plant, IPOHE (five-point scale)” value in assay [4] (250 g/Ha) is 3 (3=41-60%); in assay [4] (1000 g/ha), 5 (5=81-100%). In addition, in assay [5] (1000 g/ha), the “Pre-emergence Test ZEAMX, percentage damage caused to the plant (five-point scale)” value was 2 (2=21-40%). Besides, the “percentage damage caused to the plant, AMAPA (five-point scale)” value in assay [6] (250 g/Ha) and in assay [6] (1000 g/ha) was 5 (5=81-100%) throughout. For the same compound, the “percentage damage caused to the plant, ECHCG (five-point scale)” value in [7] (250 g/Ha) and in assay [7] (1000 g/ha) was 4 (4=61-80%) each time. In [8] (1000 g/ha), the “Pre-emergence Test AMAPA, percentage damage caused to the plant (five-point scale)” value is 5 (5=81-100%). Further, in [9] (1000 g/ha), the “Pre-emergence Test IPOHE, percentage damage caused to the plant (five-point scale)” value is recorded as 3 (3=41-60%). In addition, the entries for the “percentage damage caused to the plant, ZEAMX (five-point scale)” value in assay [10] (250 g/Ha) and in assay [10] (1000 g/ha) were 2 (2=21-40%) and 3 (3=41-60%), respectively. Moreover, the “percentage damage caused to the plant, AMARE (five-point scale)” value is 5 (5=81-100%) in [11] (250 g/Ha) and 3 (3=41-60%) in assay [11] (1000 g/ha). For the same compound, the “percentage damage caused to the plant, SETFA (five-point scale)” value in assay [12] (250 g/Ha) was 3 (3=41-60%); in [12] (1000 g/ha), 4 (4=61-80%).

As for `CCn1c(Cn2ccc(Cl)n2)cc(=O)c(C(=O)O)c1-c1ccc(S(C)(=O)=O)c(Cl)c1` [Compound 130, 2-(3-chloro-4-methylsulfonyl-phenyl)-6-[(3-chloropyrazol-1-yl)methyl]-1-ethyl-4-oxo-pyridine-3-carboxylic acid], the “Pre-emergence Test ECHCG, percentage damage caused to the plant (five-point scale)” value in assay [1] (1000 g/ha) came to 0. Also, the “Pre-emergence Test AMARE, percentage damage caused to the plant (five-point scale)” value in assay [2] (1000 g/ha) is 1 (1=0-20%). Also, in assay [3] (1000 g/ha), the “Pre-emergence Test SETFA, percentage damage caused to the plant (five-point scale)” value is recorded as 0. Besides, in [4] (1000 g/ha), the “percentage damage caused to the plant, IPOHE (five-point scale)” value is on record as 1 (1=0-20%). Further, the “Pre-emergence Test ZEAMX, percentage damage caused to the plant (five-point scale)” value in [5] (1000 g/ha) was 0. Further, the “percentage damage caused to the plant, AMAPA (five-point scale)” value in assay [6] (1000 g/ha) was 2 (2=21-40%). In addition, the “percentage damage caused to the plant, ECHCG (five-point scale)” value in assay [7] (1000 g/ha) was found to be 0. Besides, the “Pre-emergence Test AMAPA, percentage damage caused to the plant (five-point scale)” value in assay [8] (1000 g/ha) is 1 (1=0-20%). For the same compound, in assay [9] (1000 g/ha), the “Pre-emergence Test IPOHE, percentage damage caused to the plant (five-point scale)” value is recorded as 0. In assay [10] (1000 g/ha), the “percentage damage caused to the plant, ZEAMX (five-point scale)” value came to 0. In [11] (1000 g/ha), the “percentage damage caused to the plant, AMARE (five-point scale)” value was 1 (1=0-20%). In addition, the “percentage damage caused to the plant, SETFA (five-point scale)” value in assay [12] (1000 g/ha) is 1 (1=0-20%).

In the case of `CCn1c(Cn2ccc(OCCOC)n2)cc(=O)c(C(=O)O)c1-c1ccc(Cl)c(Cl)c1` [Compound 161, 2-(3,4-dichlorophenyl)-1-ethyl-6-[[3-(2-methoxyethoxy)pyrazol-1-yl]methyl]-4-oxo-pyridine-3-carboxylic acid], the “Pre-emergence Test ECHCG, percentage damage caused to the plant (five-point scale)” value in assay [1] (250 g/Ha (*)) is 0; in [1] (1000 g/ha) it was 3 (3=41-60%). Further, the “Pre-emergence Test AMARE, percentage damage caused to the plant (five-point scale)” value in assay [2] (250 g/Ha (*)) and in assay [2] (1000 g/ha) was 0 each time. In addition, the “Pre-emergence Test SETFA, percentage damage caused to the plant (five-point scale)” value is 1 (1=0-20%) in assay [3] (250 g/Ha (*)) and 4 (4=61-80%) in assay [3] (1000 g/ha). Besides, the “percentage damage caused to the plant, IPOHE (five-point scale)” value in assay [4] (250 g/Ha) is reported as 1 (1=0-20%); in assay [4] (1000 g/ha) it was 3 (3=41-60%). In addition, the “Pre-emergence Test ZEAMX, percentage damage caused to the plant (five-point scale)” value in [5] (250 g/Ha (*)) and in assay [5] (1000 g/ha) was 0 throughout. Moreover, the entries for the “percentage damage caused to the plant, AMAPA (five-point scale)” value in assay [6] (250 g/Ha) and in assay [6] (1000 g/ha) were 0 and 1 (1=0-20%), respectively. The results for the “percentage damage caused to the plant, ECHCG (five-point scale)” value in assay [7] (250 g/Ha) and in assay [7] (1000 g/ha) were 2 (2=21-40%) and 3 (3=41-60%), respectively. Moreover, the “Pre-emergence Test AMAPA, percentage damage caused to the plant (five-point scale)” value was 0 in assay [8] (250 g/Ha (*)) and 1 (1=0-20%) in assay [8] (1000 g/ha). The “Pre-emergence Test IPOHE, percentage damage caused to the plant (five-point scale)” value in [9] (250 g/Ha (*)) is recorded as 0; in assay [9] (1000 g/ha) it was 3 (3=41-60%). In addition, the “percentage damage caused to the plant, ZEAMX (five-point scale)” value in assay [10] (250 g/Ha) and in assay [10] (1000 g/ha) was 1 (1=0-20%) throughout. For the same compound, the “percentage damage caused to the plant, AMARE (five-point scale)” value in assay [11] (250 g/Ha) is reported as 1 (1=0-20%); in assay [11] (1000 g/ha) it was 0. Also, the figures for the “percentage damage caused to the plant, SETFA (five-point scale)” value in assay [12] (250 g/Ha) and in assay [12] (1000 g/ha) were 2 (2=21-40%) and 3 (3=41-60%), respectively.
